What was measured:
OAT3 = target: T1, OAT3 (Homo sapiens, UniProt Q8TCC7); assay: OAT3 activity: fluorescein accumulation in HEK-OAT3 cells; settings: for inhibition at 100 μM: human, pH 7.4; for effect on OAT3 activity: pyrethroid 100 μM
T1 sequence (Q8TCC7 1-542): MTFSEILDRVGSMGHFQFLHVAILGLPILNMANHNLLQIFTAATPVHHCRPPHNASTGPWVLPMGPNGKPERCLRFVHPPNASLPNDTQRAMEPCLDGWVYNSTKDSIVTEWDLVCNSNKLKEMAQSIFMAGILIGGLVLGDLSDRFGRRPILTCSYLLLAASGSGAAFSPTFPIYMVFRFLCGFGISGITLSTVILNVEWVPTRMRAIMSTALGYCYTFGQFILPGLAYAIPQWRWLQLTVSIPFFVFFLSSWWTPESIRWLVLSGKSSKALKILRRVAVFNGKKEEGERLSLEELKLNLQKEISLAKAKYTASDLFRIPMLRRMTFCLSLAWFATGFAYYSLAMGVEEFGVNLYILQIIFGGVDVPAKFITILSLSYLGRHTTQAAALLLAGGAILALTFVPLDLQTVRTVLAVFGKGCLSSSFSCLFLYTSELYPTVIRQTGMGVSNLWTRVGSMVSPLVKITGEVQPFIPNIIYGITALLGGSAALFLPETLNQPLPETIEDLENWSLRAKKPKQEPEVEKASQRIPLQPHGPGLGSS
Experimental: (§1) The effects of pyrethroids on activity of ABC and SLC transporters were determined through measuring cellular accumulation or retention of fluorescent or radiolabeled reference substrates for transporters, in the presence or absence of reference inhibitors, as previously described. The nature of cells and reference substrates and inhibitors used for transport assays are summarized in S3 Table.
For accumulation assays (performed for all transporters, excepted BCRP), transporter-expressing cells usually cultured in 48-well plates were first incubated at 37°C with reference substrates in the absence (control) or presence of pyrethroids or reference inhibitors, in a well-defined transport assay medium, consisting of 136 mM NaCl, 5.3 mM KCl, 1.1mM KH2PO4, 0.8 mM MgSO4, 1.8 mM CaCl2, 10 mM HEPES, 11 mM D-glucose and adjusted to pH = 7.4 (excepted for MATE transporter assays, for which pH was set to 8.4). The nature of substrates and reference inhibitors and the incubation times with substrates, that varied according to the transporter, were selected in agreement with previous studies and are indicated in S3 Table. The total incubation volume with substrates was 200 μL/well. After washing twice in phosphate-buffered saline (PBS) (200 μL/well/washing), cells were lysed in distilled water (155 μL/well). An aliquot of cell lysate (5 μL) was then taken for determining cellular protein content by the Bradford method. The rest of lysate (150 μL/well) was used for measuring intracellular accumulation of reference substrates by scintillation counting or spectrofluorimetry using a SpectraMax Gemini SX spectrofluorometer (Molecular Devices, Sunnyvale, CA, USA) (excitation and emission wavelengths were 485 and 535 nm, respectively, for rhodamine 123 and fluorescein, and 355 and 460 nm, respectively, for DAPI).
(§2) Intracellular concentrations of reference substrates were initially expressed as fluorescence arbitrary units (for fluorescent dye substrates) or as moles (for radiolabeled substrates) and normalized to cellular protein content, determined by the Bradford method. They were finally used for calculating percentage of transporter activity, according to the following equations [41, 45]: %ABCtransporter activity=([Substrateref inh]-[Substratepyrethroid])×100/([Substrateref inh]-[Substratecontrol]) (1) %SLC transporter activity=([Substratepyrethroid]-[Substratref inh])×100/([Substratecontrol]-[Substrateref inh]) (2) with [Substratepyrethroid] = cellular concentration of reference substrate in the presence of pyrethroid, [Substrateref inh] = cellular concentration of reference substrate in the presence of reference inhibitor and [Substratecontrol] = cellular concentration of reference substrate in control cells not exposed to pyrethroid or reference inhibitor.
(§3) The initial tested concentration of pyrethroids was 100 μM. […] Such concentrations were calculated using GraphPad Prism software (GraphPad Software, La Jolla, CA), through nonlinear regression based on the four parameter logistic function using the following equations: […]

OATP2B1 = target: T2, OATP2B1 (Homo sapiens, UniProt O94956); assay: OATP2B1 activity: E3S accumulation in HEK-OATP2B1 cells; settings: for effect on OATP2B1 activity: pyrethroid 100 μM
T2 sequence (O94956 1-709): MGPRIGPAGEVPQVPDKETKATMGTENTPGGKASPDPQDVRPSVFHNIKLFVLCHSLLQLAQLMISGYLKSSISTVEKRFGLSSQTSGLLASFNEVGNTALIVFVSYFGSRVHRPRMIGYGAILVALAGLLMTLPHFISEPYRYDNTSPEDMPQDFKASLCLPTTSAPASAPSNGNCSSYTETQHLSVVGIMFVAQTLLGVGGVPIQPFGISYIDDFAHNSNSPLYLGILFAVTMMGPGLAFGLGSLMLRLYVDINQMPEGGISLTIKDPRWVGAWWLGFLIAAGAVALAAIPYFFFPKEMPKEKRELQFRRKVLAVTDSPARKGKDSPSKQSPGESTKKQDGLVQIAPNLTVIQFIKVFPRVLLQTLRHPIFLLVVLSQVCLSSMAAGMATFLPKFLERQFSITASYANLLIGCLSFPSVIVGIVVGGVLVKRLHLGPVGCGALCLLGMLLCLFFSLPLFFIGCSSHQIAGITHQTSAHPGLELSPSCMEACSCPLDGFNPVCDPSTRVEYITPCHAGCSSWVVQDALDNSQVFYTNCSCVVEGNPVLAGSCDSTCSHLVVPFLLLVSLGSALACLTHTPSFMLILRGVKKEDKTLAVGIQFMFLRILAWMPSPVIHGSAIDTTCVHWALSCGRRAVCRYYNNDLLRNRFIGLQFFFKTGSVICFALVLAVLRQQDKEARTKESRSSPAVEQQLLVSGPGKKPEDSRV
Experimental: as §1
The nature of substrates and reference inhibitors and the incubation times with substrates, that varied according to the transporter, were selected in agreement with previous studies and are indicated in S3 Table. The total incubation volume with substrates was 200 μL/well. […] An aliquot of cell lysate (5 μL) was then taken for determining cellular protein content by the Bradford method.
as §2, §3

## CC(C)=CC1C(C(=O)OCN2C(=O)C3=C(CCCC3)C2=O)C1(C)C (centres unmarked) [tetramethrin]
OAT3
  IC50: 77.6 µM
  inhibition at 100 μM: 69.3%
OATP2B1
  EC50: 10.1 µM

## C#CCN1CC(=O)N(COC(=O)[C@@H]2C(C=C(C)C)C2(C)C)C1=O (mixture of isomers) [imiprothrin]
OAT3
  effect on OAT3 activity: inhibited
OATP2B1
  effect on OATP2B1 activity: cis-stimulated

## C=CCC1=C(C)C(OC(=O)C2C(C=C(C)C)C2(C)C)CC1=O (centres unmarked) [allethrin]
OAT3
  IC50: 69.4 µM
  inhibition at 100 μM: 74.8%
OATP2B1
  EC50: 37.8 µM
  effect on OATP2B1 activity: cis-stimulated

## C#CCC1=C(C)C(OC(=O)C2C(C=C(C)C)C2(C)C)CC1=O (centres unmarked) [prallethrin]
OAT3
  effect on OAT3 activity: inhibited
OATP2B1
  effect on OATP2B1 activity: cis-stimulated
